Test results as given in ChEMBL document CHEMBL4680314, “Discovery of potent glycogen synthase kinase 3/cholinesterase inhibitors with neuroprotection as potential therapeutic agent for Alzheimer's disease” (Bioorg Med Chem, 2021).
Active and inactive are the calls of the source. The calls are words filed in the database; no cut-off is given here.

Key:
[1] = molecular target: Glycogen synthase kinase-3 alpha (Homo sapiens, UniProt P49840); experiment: Inhibition of GSK3alpha (unknown origin) by ATP competitive based analysis
Glycogen synthase kinase-3 alpha, sequence (P49840 whole entry): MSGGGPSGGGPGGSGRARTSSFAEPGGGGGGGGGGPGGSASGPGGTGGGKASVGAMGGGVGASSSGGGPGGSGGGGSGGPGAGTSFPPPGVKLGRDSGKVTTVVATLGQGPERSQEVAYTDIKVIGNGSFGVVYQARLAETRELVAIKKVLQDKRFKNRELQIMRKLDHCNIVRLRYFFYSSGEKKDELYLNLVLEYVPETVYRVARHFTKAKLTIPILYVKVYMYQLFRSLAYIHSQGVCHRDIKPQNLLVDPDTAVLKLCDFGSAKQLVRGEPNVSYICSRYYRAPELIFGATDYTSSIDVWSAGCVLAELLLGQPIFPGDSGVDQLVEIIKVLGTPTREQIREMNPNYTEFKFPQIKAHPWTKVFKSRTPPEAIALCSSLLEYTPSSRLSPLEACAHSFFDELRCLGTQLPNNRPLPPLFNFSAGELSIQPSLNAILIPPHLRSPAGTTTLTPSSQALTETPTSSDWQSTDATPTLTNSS

[2] = molecular target: Glycogen synthase kinase-3 beta (Mus musculus) (UniProt Q9WV60); experiment: Inhibition of GSK3beta in mouse N2a cells overexpressing human tau assessed as tau phosphorylation at Ser396 residue at 0.22 uM incubated for 6 hrs by Western blot analysis (reference value: […] %); assay type: cell-based; parameters: scale not given: the % may be the effect or the level left
Glycogen synthase kinase-3 beta (Mus musculus), sequence (Q9WV60 whole entry, looked up): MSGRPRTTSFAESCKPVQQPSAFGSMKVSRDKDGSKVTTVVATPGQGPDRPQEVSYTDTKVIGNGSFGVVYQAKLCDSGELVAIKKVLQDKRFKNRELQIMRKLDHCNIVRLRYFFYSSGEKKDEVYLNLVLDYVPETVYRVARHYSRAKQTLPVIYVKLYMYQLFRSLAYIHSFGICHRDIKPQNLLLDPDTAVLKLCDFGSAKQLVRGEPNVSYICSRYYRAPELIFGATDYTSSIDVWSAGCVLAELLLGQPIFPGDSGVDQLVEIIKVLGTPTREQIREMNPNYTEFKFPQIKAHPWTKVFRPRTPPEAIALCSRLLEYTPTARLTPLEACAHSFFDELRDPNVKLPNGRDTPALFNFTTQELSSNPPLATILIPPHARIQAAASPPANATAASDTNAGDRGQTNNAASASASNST

[3] = molecular target: Mitogen-activated protein kinase 12 (Homo sapiens, UniProt P53778); experiment: Inhibition of p38MAPK gamma (unknown origin) by ATP competitive based analysis
Mitogen-activated protein kinase 12, sequence (P53778 whole entry): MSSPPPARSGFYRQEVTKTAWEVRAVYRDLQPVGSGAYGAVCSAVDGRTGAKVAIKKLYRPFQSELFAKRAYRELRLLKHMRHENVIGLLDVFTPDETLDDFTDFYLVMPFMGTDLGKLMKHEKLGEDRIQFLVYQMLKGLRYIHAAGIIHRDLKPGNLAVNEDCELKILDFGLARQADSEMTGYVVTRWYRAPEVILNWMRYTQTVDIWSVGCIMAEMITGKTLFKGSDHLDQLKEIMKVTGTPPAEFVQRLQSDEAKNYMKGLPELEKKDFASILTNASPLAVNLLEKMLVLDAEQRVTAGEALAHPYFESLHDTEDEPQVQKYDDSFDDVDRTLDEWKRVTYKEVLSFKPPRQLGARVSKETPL

[4] = molecular target: Glycogen synthase kinase-3 beta (Mus musculus) (UniProt Q9WV60); experiment: Inhibition of GSK3beta in mouse N2a cells overexpressing human tau assessed as tau phosphorylation at Ser396 residue at 0.074 uM incubated for 6 hrs by Western blot analysis (reference value: […] %); assay type: cell-based; parameters: scale not given: the % may be the effect or the level left
Homo sapiens [5] = species: Homo sapiens; experiment: Selectivity index, ratio of IC50 for JNK3 (unknown origin) to IC50 for GSK-3 beta (unknown origin) by ATP competitive based analysis
Homo sapiens [6] = species: Homo sapiens; experiment: Selectivity index, ratio of IC50 for CDK6 (unknown origin) to IC50 for GSK-3 beta (unknown origin) by ATP competitive based analysis
[7] = molecular target: Mitogen-activated protein kinase 14 (Homo sapiens, UniProt Q16539); experiment: Inhibition of p38MAPK alpha (unknown origin) by ATP competitive based analysis
Mitogen-activated protein kinase 14, sequence (Q16539 whole entry): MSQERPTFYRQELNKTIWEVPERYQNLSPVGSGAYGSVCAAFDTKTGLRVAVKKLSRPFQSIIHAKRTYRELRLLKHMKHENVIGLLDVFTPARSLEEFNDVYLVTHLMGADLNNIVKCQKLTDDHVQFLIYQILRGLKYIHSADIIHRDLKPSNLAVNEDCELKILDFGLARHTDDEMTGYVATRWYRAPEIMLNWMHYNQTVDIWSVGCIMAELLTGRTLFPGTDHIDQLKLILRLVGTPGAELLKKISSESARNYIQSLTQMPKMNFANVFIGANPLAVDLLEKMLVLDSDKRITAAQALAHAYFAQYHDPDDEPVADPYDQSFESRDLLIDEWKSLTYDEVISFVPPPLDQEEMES

[8] = molecular target: Cyclin-dependent kinase 2 (Homo sapiens, UniProt P24941); experiment: Inhibition of CDK2 (unknown origin) by ATP competitive based analysis
[9] = AUC (0 to 24 hrs) in Sprague-Dawley rat at 10 mg/kg, po measured upto 24 hrs by LC-MS/MS analysis; assay type: ADME, organism-based; parameters: route oral, dose 10 mg/kg, time <=24; details: in vivo
Homo sapiens [10] = species: Homo sapiens; experiment: Selectivity index, ratio of IC50 for […] IC50 for GSK-3 beta (unknown origin) by ATP competitive based analysis
BV-2 [11] = experiment: Anti-inflammatory activity in mouse BV-2 cells assessed as reduction in LPS-induced IL-1beta production incubated for 1 hr followed by LPS stimulation and measured after 24 hrs by ELISA; assay type: functional, cell-based; details: dose 2-8 µM, time 25.0 hrs
[12] = MRT (0 to t) in Sprague-Dawley rat at 10 mg/kg, po measured upto 24 hrs by LC-MS/MS analysis; assay type: ADME, organism-based; details: in vivo
BV-2 [13] = experiment: Anti-inflammatory activity in mouse BV-2 cells assessed as reduction in LPS-induced TNFalpha expression at 4 uM incubated for 1 hr followed by LPS stimulation and measured after 24 hrs by immunofluorescence based laser confocal microscopy; assay type: functional, cell-based; details: time 25.0 hrs
[14] = molecular target: Mitogen-activated protein kinase 3 (Homo sapiens, UniProt P27361); experiment: Inhibition of ERK1 (unknown origin) by ATP competitive based analysis
Mitogen-activated protein kinase 3, sequence (P27361 whole entry): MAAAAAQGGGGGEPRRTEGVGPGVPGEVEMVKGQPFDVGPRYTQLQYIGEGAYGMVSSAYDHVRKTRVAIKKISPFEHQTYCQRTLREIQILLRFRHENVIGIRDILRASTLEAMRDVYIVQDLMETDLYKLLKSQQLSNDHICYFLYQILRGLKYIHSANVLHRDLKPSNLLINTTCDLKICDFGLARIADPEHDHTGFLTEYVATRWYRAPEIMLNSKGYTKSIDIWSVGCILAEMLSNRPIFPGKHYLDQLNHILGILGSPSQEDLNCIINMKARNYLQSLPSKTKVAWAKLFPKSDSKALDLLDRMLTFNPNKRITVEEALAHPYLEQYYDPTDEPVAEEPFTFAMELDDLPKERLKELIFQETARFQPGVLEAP

[15] = Half life in Sprague-Dawley rat at 10 mg/kg, po measured upto 24 hrs by LC-MS/MS analysis; assay type: ADME, organism-based; details: in vivo
[16] = molecular target: Mitogen-activated protein kinase 11 (Homo sapiens, UniProt Q15759); experiment: Inhibition of p38MAPK beta (unknown origin) by ATP competitive based analysis
Mitogen-activated protein kinase 11, sequence (Q15759 whole entry): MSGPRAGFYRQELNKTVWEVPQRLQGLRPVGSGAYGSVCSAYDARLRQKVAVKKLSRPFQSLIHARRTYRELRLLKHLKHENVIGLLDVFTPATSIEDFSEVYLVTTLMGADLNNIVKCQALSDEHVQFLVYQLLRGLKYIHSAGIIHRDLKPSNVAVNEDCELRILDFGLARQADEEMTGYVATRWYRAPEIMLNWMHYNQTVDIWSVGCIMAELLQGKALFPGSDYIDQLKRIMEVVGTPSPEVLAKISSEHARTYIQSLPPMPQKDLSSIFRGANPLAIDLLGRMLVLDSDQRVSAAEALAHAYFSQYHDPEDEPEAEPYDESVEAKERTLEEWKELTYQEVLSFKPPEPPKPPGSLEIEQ

[17] = molecular target: Cyclin-dependent kinase 9 (Homo sapiens, UniProt P50750); experiment: Inhibition of CDK9 (unknown origin) by ATP competitive based analysis
Cyclin-dependent kinase 9, sequence (P50750 whole entry): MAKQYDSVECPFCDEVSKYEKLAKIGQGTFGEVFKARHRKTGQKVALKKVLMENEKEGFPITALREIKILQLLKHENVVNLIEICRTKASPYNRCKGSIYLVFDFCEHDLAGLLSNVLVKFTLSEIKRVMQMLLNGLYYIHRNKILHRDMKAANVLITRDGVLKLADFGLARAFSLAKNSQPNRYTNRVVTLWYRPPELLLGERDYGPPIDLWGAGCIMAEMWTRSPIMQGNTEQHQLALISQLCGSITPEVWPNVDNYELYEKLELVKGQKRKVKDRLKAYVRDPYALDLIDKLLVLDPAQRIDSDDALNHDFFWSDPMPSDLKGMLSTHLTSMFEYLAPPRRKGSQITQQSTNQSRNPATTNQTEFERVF

Cholinesterase = Cholinesterase (Homo sapiens, UniProt P06276); experiment: Inhibition of human BChE using butyrylthiocholineiodide as substrate incubated for 10 mins by Ellman's method
Cholinesterase, sequence (P06276 whole entry): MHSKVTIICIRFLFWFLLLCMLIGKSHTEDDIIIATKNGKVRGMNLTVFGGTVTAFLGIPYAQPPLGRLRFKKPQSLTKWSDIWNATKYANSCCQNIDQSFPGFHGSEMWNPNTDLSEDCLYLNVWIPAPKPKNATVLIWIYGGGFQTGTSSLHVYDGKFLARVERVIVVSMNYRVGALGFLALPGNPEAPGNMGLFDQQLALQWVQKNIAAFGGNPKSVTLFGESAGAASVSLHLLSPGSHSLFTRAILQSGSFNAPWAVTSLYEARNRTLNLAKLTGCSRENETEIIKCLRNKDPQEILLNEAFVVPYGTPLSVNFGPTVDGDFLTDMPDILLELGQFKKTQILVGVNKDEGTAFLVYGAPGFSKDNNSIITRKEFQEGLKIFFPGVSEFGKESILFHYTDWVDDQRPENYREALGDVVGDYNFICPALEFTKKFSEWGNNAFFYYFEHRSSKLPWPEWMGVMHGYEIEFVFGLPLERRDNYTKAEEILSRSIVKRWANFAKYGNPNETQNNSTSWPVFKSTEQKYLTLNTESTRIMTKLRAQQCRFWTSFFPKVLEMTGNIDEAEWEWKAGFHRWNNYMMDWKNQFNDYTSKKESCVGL

[18] = AUC (0 to infinity) in Sprague-Dawley rat at 5 mg/kg, iv by LC-MS/MS analysis; assay type: ADME, organism-based; parameters: route intravenous, dose 5 mg/kg; details: in vivo
BV-2 [19] = experiment: Anti-inflammatory activity in mouse BV-2 cells assessed as reduction in LPS-induced TNFalpha production incubated for 1 hr followed by LPS stimulation and measured after 24 hrs by ELISA; assay type: functional, cell-based; details: dose 2-8 µM, time 25.0 hrs
N2a = experiment: Effect on tau protein level in mouse N2a cells overexpressing human tau at 0.074 to 6 uM incubated for 6 hrs by Western blot analysis; assay type: functional, cell-based; details: dose 0.074-6 µM
[20] = Half life in Sprague-Dawley rat at 5 mg/kg, iv measured upto 24 hrs by LC-MS/MS analysis; assay type: ADME, organism-based; details: in vivo
[21] = Ratio of drug level in ICR mouse brain to blood at 15 mg/kg, po measured after 90 mins by LC-MS/MS analysis; assay type: ADME, organism-based; details: 1.5 h
[22] = MRT (0 to t) in Sprague-Dawley rat at 5 mg/kg, iv measured upto 24 hrs by LC-MS/MS analysis; assay type: ADME, organism-based; details: in vivo
Homo sapiens [23] = species: Homo sapiens; experiment: Selectivity index, ratio of IC50 for p38MAPK beta (unknown origin) to IC50 for GSK-3 beta (unknown origin) by ATP competitive based analysis
Homo sapiens [24] = species: Homo sapiens; experiment: Selectivity index, ratio of IC50 for ERK1 (unknown origin) to IC50 for GSK-3 beta (unknown origin) by ATP competitive based analysis
[25] = Toxicity in ICR mouse assessed as reduction in body weight at 15 mg/kg, po; assay type: organism-based; details: in vivo
Homo sapiens [26] = species: Homo sapiens; experiment: Selectivity index, ratio of IC50 for p38MAPK alpha (unknown origin) to IC50 for GSK-3 beta (unknown origin) by ATP competitive based analysis
BV-2 [27] = experiment: Anti-inflammatory activity in mouse BV-2 cells assessed as reduction in LPS-induced TNFalpha production at 8 uM incubated for 1 hr followed by LPS stimulation and measured after 24 hrs by ELISA relative to control; assay type: functional; details: time 25 hrs
[28] = molecular target: Cyclin-dependent kinase 1 (Homo sapiens, UniProt P06493); experiment: Inhibition of CDK1 (unknown origin) by ATP competitive based analysis
Cyclin-dependent kinase 1, sequence (P06493 whole entry): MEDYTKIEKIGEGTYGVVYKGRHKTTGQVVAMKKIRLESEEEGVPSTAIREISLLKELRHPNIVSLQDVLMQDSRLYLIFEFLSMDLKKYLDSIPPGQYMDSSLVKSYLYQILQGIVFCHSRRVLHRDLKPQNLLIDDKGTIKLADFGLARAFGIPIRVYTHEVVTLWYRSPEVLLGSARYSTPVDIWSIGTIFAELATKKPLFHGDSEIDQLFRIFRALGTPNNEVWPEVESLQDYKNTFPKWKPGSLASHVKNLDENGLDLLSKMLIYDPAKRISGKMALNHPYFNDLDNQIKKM

[29] = molecular target: Cyclin-dependent kinase 4 (Homo sapiens, UniProt P11802); experiment: Inhibition of CDK4 (unknown origin) by ATP competitive based analysis
Cyclin-dependent kinase 4, sequence (P11802 whole entry): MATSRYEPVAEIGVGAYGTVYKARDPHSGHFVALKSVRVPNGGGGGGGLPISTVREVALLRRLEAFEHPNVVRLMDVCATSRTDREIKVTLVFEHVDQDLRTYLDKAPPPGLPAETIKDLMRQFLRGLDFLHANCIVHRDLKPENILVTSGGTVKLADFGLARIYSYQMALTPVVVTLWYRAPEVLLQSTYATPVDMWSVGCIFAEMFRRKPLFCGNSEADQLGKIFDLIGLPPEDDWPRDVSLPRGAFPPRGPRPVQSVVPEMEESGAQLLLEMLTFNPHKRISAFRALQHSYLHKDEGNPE

[30] = molecular target: Dual specificity tyrosine-phosphorylation-regulated kinase 1B (Homo sapiens, UniProt Q9Y463); experiment: Inhibition of DYRK1B (unknown origin) by ATP competitive based analysis
Dual specificity tyrosine-phosphorylation-regulated kinase 1B, sequence (Q9Y463 whole entry): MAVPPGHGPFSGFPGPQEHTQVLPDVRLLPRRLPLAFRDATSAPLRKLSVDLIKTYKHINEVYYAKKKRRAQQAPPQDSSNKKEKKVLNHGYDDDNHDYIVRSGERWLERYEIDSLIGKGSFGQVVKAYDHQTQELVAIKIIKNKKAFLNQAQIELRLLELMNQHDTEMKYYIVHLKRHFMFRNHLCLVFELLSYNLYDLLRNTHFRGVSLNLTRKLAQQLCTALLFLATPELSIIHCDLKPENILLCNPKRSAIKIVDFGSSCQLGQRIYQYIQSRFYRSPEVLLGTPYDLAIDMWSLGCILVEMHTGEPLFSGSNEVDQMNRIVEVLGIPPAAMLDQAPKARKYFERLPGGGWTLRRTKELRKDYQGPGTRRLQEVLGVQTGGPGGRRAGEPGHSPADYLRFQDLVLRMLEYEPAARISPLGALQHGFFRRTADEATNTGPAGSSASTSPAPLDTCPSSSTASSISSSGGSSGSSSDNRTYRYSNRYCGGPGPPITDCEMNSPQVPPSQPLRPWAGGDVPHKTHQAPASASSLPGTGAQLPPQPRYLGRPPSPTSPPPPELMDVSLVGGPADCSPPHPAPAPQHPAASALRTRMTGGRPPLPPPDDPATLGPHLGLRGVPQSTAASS

BV-2 [31] = experiment: Cytotoxicity against mouse BV-2 cells assessed as effect on cell morphology; assay type: cell-based
[32] = molecular target: Dual specificity tyrosine-phosphorylation-regulated kinase 1A (Homo sapiens, UniProt Q13627); experiment: Inhibition of DYRK1A (unknown origin) by ATP competitive based analysis
[33] = AUC (0 to 24 hrs) in Sprague-Dawley rat at 5 mg/kg, iv measured upto 24 hrs by LC-MS/MS analysis; assay type: ADME, organism-based; parameters: route intravenous, dose 5 mg/kg, time <=24; details: in vivo
Homo sapiens [34] = species: Homo sapiens; experiment: Selectivity index, ratio of IC50 for ERK2 (unknown origin) to IC50 for GSK-3 beta (unknown origin) by ATP competitive based analysis
[35] = Drug uptake in mouse BV-2 cells at 25 uM incubated for 1 hr measured per million cells by LC-MS/MS analysis; assay type: ADME, cell-based; details: bv-2, 1 h
[36] = Toxicity in ICR mouse model of scopolamine-induced cognitive dysfunction assessed as effect on locomotor activity by measuring effect on swimming speed at 15 mg/kg, po by Morris water maze test; assay type: organism-based; details: in vivo
Homo sapiens [37] = species: Homo sapiens; experiment: Selectivity index, ratio of IC50 for GSK3alpha (unknown origin) to IC50 for GSK-3 beta (unknown origin) by ATP competitive based analysis
[38] = molecular target: Cyclin-dependent kinase 7 (Homo sapiens, UniProt P50613); experiment: Inhibition of CDK7 (unknown origin) by ATP competitive based analysis
Cyclin-dependent kinase 7, sequence (P50613 whole entry): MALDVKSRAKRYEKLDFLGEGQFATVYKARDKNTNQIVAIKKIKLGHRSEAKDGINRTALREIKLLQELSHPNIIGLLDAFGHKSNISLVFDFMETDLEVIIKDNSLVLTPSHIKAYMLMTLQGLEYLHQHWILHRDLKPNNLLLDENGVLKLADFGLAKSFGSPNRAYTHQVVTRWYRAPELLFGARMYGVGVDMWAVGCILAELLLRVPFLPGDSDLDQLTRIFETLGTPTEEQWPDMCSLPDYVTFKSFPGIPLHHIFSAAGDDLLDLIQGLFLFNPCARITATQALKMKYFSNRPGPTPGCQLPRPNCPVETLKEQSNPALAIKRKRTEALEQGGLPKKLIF

NC(=O)c1sc(-c2ccnc(NC(=O)C3CC3)c2)nc1OCCCC1CCN(Cc2ccc(F)cc2)CC1
IC50 [1]: 0.012 µM | Activity [2]: 63.3% | IC50 [3]: > 0.3 µM | Activity [4]: 91.1% | Ratio IC50 (Homo sapiens [5]): 200 | Ratio IC50 (Homo sapiens [6]): 200 | IC50 [7]: > 0.3 µM | IC50 [8]: > 0.3 µM | AUC(0-t) [9]: 1160 ng·h/mL | Ratio IC50 (Homo sapiens [10]): 200 | Activity (BV-2 [11]): Dose-dependent effect | MRT last at 24 h [12]: 9.9 h | Activity (BV-2 [13]): Active | IC50 [14]: > 0.3 µM | half-life [15]: 5.8 h | IC50 [16]: > 0.3 µM | IC50 [17]: 0.108 µM | IC50 (Cholinesterase): 3.41 µM | AUC(0-inf) [18]: 1980 ng·h/mL | Activity (BV-2 [19]): Dose-dependent effect | Activity (N2a): inactive | half-life [20]: 4.3 h | Ratio [21]: 21.6 ng/kg | MRT last at 24 h [22]: 3.3 h | Ratio IC50 (Homo sapiens [23]): 200 | Ratio IC50 (Homo sapiens [24]): 200 | Activity [25]: Non-Toxic | Ratio IC50 (Homo sapiens [26]): 200 | inhibition at 8 µM (BV-2 [27]): 100% | IC50 [28]: > 0.3 µM | IC50 [29]: > 0.3 µM | IC50 [30]: 0.0378 µM | Activity (BV-2 [31]): Non-Toxic | IC50 [32]: 0.0081 µM | AUC(0-t) [33]: 1960 ng·h/mL | Ratio IC50 (Homo sapiens [34]): 200 | Drug uptake [35]: 722 ng | Activity [36]: Non-Toxic | Ratio IC50 (Homo sapiens [37]): 200 | IC50 [38]: > 0.3 µM
